Data taken from publication PMC6447718, “PACAP-38 and PACAP(6–38) Degranulate Rat Meningeal Mast Cells via the Orphan MrgB3-Receptor” (Frontiers in Cellular Neuroscience, 2019).
“Also recorded” adds a separate entry of the source. Like-named read-outs stand apart in the source and are kept apart here.

How the values were obtained:
[1] = tested on: rat peritoneal mast cells; conditions: ref Baun et al., 2012, cited from earlier work; for peritoneal mast cell degranulation (result in words): rat peritoneal mast cells
Description: Inspired by clinical findings, we have previously characterized the degranulating effect of various PACAP-analogues on isolated rat peritoneal mast cells. Based on the expectation that degranulation is mediated through the PAC1-receptor, we found an unpredicted order of potency (Baun et al., [2012]).

PAC1-receptor = conditions: presence of 21-amino acid domain in extracellular N-terminal domain (PAC1-full, short); ref Pantaloni et al., 1996; cited from earlier work
Description: Pituitary adenylate cyclase-activating peptide-38 (PACAP-38) is a 38-amino acid neuropeptide located in both sensory and parasympathetic perivascular nerve fibers (Moller et al., [1993]; Mulder et al., [1994]). A C-terminal truncated 27-amino acid (PACAP-27) version is endogenously present as well but is less abundant (Miyata et al., [1990]; Arimura et al., [1991]; Ogi et al., [1993]). […] At present, three PACAP-receptors have been identified: PA ... || Several different splice variants of the PAC1-receptor have been identified in rats. Splice sites in the extracellular N-terminal domain and the third intracellular loop account for fine tuning of ligand affinity and signal transduction through adenylate cyclase or PLC activation (Deutsch and Sun, [1992]; Spengler et al., [1993]).

[2] = tested on: calcitonin gene-related peptide (CGRP) release from the trigeminal nucleus caudalis; conditions: ref Jansen-Olesen et al., 2014; cited from earlier work
Description: Future studies will have to rule out if MrgB3-receptors are involved in PACAP- ...

VPAC2-receptor = tested on: VPAC2-receptor; parameters: method as in Harmar et al., 2012; conditions: PACAP-38, PACAP-27 and VIP compared; ref Harmar et al., 2012; cited from earlier work
VPAC1-receptor = tested on: VPAC1-receptor; parameters: method as in Harmar et al., 2012; conditions: PACAP-38, PACAP-27 and VIP compared; ref Harmar et al., 2012; cited from earlier work
rat meningeal mast cells = test: Mast cell degranulation in hemi-skull preparations (dura mater, toluidine blue staining, microscopic count); type: cell-based, rat (male Sprague-Dawley); conditions: for degranulated meningeal mast cells in % of total number of mast cells: 30 s incubation, mean ± SEM; for mast cell degranulation: Figure 4A, PACAP-27 n = 6, maxadilan n = 5, mean ± SEM; for mast cell degranulation (result in words): 0.1 to 10 μM, rat meningeal mast cells
Protocol: Mast cell degranulation was performed as previously described (Pedersen et al., [2015]). In brief, skulls were cut mid-sagittal and the brain halves were removed, leaving the dura mater undisturbed. This was followed by immediate addition of either 350 μl 0.1, 1 or 10 μM PACAP-38 (custom synthesis by Caslo Laboratory ApS, Lyngby, Denmark) or vehicle (saline) in phosphate buffered saline (PBS). After 30 s incubation, the reactions were terminated, and the skulls were fixated in 4% paraformaldehyde in phosphate buffered saline (PBS; Glostrup Hospital Pharmacy, Denmark). The dura mater was dissected from the skull, whole mounted on slides, and mast cells were visualized by staining with 0.1% acidified toluidine blue (Sigma Aldrich, Germany). Tissues were dehydrated in graded alcohols prior to cover slip mounting. The level of mast cell degranulation was evaluated by 400× magnification (Nikon Eclipse Ni microscope) by a researcher blinded to the treatment and was counted in 10 consecutive fields along the stem part of the middle meningeal artery. Mast cells were considered degranulated if an extensive dispersion of more than 10 extruded granules were localized outside the cell or if an extensive loss of staining gave the cell a “ghostly” look.
(§1) Concentration-response curves for both oocytes and dural mast cells were analyzed for overall effects of PACAP-38 and -27 by two-way analyses of variance (ANOVA) followed by Sidak’s test for multiple pairwise comparisons. Effects of PAC1-receptor ligands on mast cell degranulation or on receptor-expressing oocytes were analyzed with a one-way ANOVA followed by Tukey’s multiple comparisons test. The effect of PACAP-38 and PACAP(6–38) on MrgB3-expressing oocytes were analyzed by an unpaired two-tailed t-test. Differences between groups were considered significant when p < 0.05 and data are presented as mean with standard error of the mean (±SEM). GraphPad Prism 7 (GraphPad Prism Software, San Diego, CA, USA) was used for statistical analysis.

[3] = tested on: MrgB3-receptor (RGD1560730); test: Two-electrode voltage clamp on MrgB3-receptor-expressing Xenopus laevis oocytes; type: cell-based, rat; conditions: for activation of MrgB3-receptor (result in words): 1–10 μM, holding potential −70 mV
Description: (§2) DNA of the coding region of Rattus Norvegicus Adcyap1r1 variant 5 (NM_001270582.1) encoding the null-splice variant (short N-terminal and neither exon 14 or 15) of the PAC1-receptor (Vector: EX-Rn10199-M03) was ordered from GeneCopoeia. DNA encoding the RGD1560730 gene (XM_006229262.3, GenScript), was cloned into the pXOOM vector as previously described (Jespersen et al., [2002]). DNA was purified using Plasmid DNA Purification NucleoBond Xtra Midi-kit (Macherey-Nagel). […] Extracted plasmids were linearized down-stream the poly(A) segment using the XhoI restriction enzyme (New England Biolabs, Ipswich, MA, USA). RNA was in vitro transcribed by synthetization from the T7 RNA polymerase promoter using the mMessenger mMachine kit (Ambion) according to manufacturer’s protocol. Messenger RNA was purified using the MEGAclear kit (Ambion). Transcribed RNA integrity was assessed by agarose gel electrophoresis.
(§3) Stage V and VI defolliculated Xenopus laevis oocytes were purchased from EcoCyte Bioscience (Dortmund, Germany) and kept in Kulori medium (90 mM NaCl, 4 mM KCl, 1 mM MgCl2, 1 mM CaCl2, and 5 mM Hepes, pH 7.4). Oocytes were micro-injected with 50 nl mRNA solution containing 30 ng RNA per oocyte and incubated at 19°C. Currents were measured after 2–5 days using a conventional two-electrode-voltage clamp (TEVC). The oocytes were placed in a 200 μl chamber and continuously exposed to a flow of Kulori medium with or without ligands (1 ml/min) while impaled with both a current and a voltage electrode filled with 3 M KCl and connected to an Oocyte Clamp Amplifier [Warner Instruments Corp. (OC-725 B) and a PC-interface (Digidata1440A, Molecular Devices)]. Current amplitude in absence or presence of ligands were analyzed using pClamp 10.2 software (Molecular Devices). All experiments were performed with oocyte membrane voltages constantly clamped to −70 mV and the temperature was kept between 19 and 22°C. In activation experiments, non-responding as well as low-responding (<10 nA) oocytes were excluded from the dataset. Ligands PACAP-38, PACAP-27, PACAP(6–38) were custom synthetized by Caslo (Lyngby, Denmark) while maxadilan was purchased from Bachem (Bubendorf, Switzerland).
as §1

[4] = tested on: PAC1-receptor (Rattus Norvegicus Adcyap1r1 variant 5, null-splice variant); type: cell-based
Description: as §2, §3, §1

un-injected oocytes = test: Two-electrode voltage clamp on un-injected Xenopus laevis oocytes (control); type: cell-based; conditions: for delayed long-lasting response in un-injected oocytes: 10 μM; for currents in un-injected oocytes (result in words): same concentrations as in receptor-expressing oocytes (0.1–3 μM; maxadilan up to 10 μM), data not shown
Protocol: as §3

migraine patients = conditions: ref Schytz et al., 2009, cited from earlier work
Description: Pituitary adenylate cyclase-activating peptide-38 (PACAP-38) is a 38-amino acid neuropeptide located in both sensory and parasympathetic perivascular nerve fibers (Moller et al., [1993]; Mulder et al., [1994]). A C-terminal truncated 27-amino acid (PACAP-27) version is endogenously present as well but is less abundant (Miyata et al., [1990]; Arimura et al., [1991]; Ogi et al., [1993]). […] Degranulation of mast cells can be induced either by an allergen-IgE-dependent mechanism or via an IgE-independent mechanism. The latter mechanism can be activated by a group of molecules known as basic secretagogues.

[5] = 10.0 μM, n = 6, **** p < 0.0001 for PACAP-38 (two-way ANOVA, Sidak's test)

Compound | effect of inhibitor on PACAP-38-induced degranulation (result in words) [1] | peritoneal mast cell degranulation (result in words) [1] | effect of 21-amino acid N-terminal domain of PAC1 on binding (result in words) (PAC1-receptor) | release of CGRP from the trigeminal nucleus caudalis (result in words) [2] | profile on VPAC2-receptor (result in words) (VPAC2-receptor) | profile on VPAC1-receptor (result in words) (VPAC1-receptor) | degranulated meningeal mast cells in % of total number of mast cells (rat meningeal mast cells; 0.1 μM, n = 5) [% degranulation] | degranulated meningeal mast cells in % of total number of mast cells (rat meningeal mast cells; 1.0 μM, n = 6) [% degranulation] | degranulated meningeal mast cells in % of total number of mast cells (rat meningeal mast cells; [5]) | mast cell degranulation (rat meningeal mast cells; 10 μM, 30 s) [%] | mast cell degranulation (result in words) (rat meningeal mast cells; 30 s) | activation of MrgB3-receptor (result in words) [3] | activation of PAC1-receptor / relative potency (result in words) [4] | delayed long-lasting response in un-injected oocytes (un-injected oocytes) | currents in un-injected oocytes (result in words) (un-injected oocytes) | current ([3]; up to 10 μM, −70 mV, Figure 4C, n = 9, mean ± SEM) [μA] | activation of PAC1-receptor / relative potency (result in words) ([4]; 0.01 to 1 μM, holding potential −70 mV) | migraine attacks / headache after infusion (result in words) (migraine patients; PACAP-38: 20-min intravenous infusion) | adverse events after infusion (result in words) (migraine patients; infusion, terminated by antihistamine treatment) | increase in mast cell degranulation (rat meningeal mast cells; 10 μM, 30 s, p < 0.0001)
Nc1ncnc2c1ncn2C1CCCO1 (stereo not drawn) [SQ22536] | ineffective |  |  |  |  |  |  |  |  |  |  |  |  |  |  |  |  |  |  | 
COc1ccc2c(c1)CC[C@@H]1[C@@H]2CC[C@]2(C)[C@@H](NCCCCCCN3C(=O)C=CC3=O)CC[C@@H]12 [U-73122] | impaired |  |  |  |  |  |  |  |  |  |  |  |  |  |  |  |  |  |  | 
Pituitary Adenylate Cyclase Activating Peptide-27 [PACAP-27] |  | not PACAP-27 and VIP, caused degranulation; also recorded: weak degranulating effect | impairs PACAP-27 binding | neither VIP, PACAP-27 nor maxadilan, mediated the release | equipotent | equipotent | 7.1 ± 3.2 | 16.9 ± 5.5 | 12.1 ± 3.8 % degranulation | 12 ± 4 | did not induce mast cell degranulation that was significantly different from saline treatment; also recorded: unresponsive | not significantly different from baseline; also recorded: no change; also recorded: not PACAP-27 and maxadilan induces currents | equipotent; also recorded: significant increase in membrane current; also recorded: activates the PAC1-receptor with apparently equal potencies | not PACAP-27 | Currents were not observed |  |  |  |  | 
maxadilan |  | no effect on mast cell degranulation; also recorded: ineffective |  | neither VIP, PACAP-27 nor maxadilan, mediated the release |  |  |  |  |  | 5 ± 2 | unresponsive | does not activate MrgB3-receptors; also recorded: no change; also recorded: not PACAP-27 and maxadilan induces currents |  |  | Currents were not observed | −0.03 ± 0 | activates the PAC1-receptor with apparently equal potencies; also recorded: equipotent |  |  | 
pituitary adenylate cyclase activating peptide-38 [PACAP-38] |  | caused degranulation; also recorded: strong degranulation effect; also recorded: almost total mast cell degranulation within the first 10–20 s after application |  | mediated the release | equipotent | equipotent | 12.4 ± 3.8 | 17.9 ± 3.7 | 48.4 ± 6.2**** % degranulation |  | more potent mast cell degranulating agent than Pituitary Adenylate Cyclase Activating Peptide-27 (PACAP-27) in the meninges; also recorded: significant mast cell degranulation only was observed after stimulation with PACAP-38; also recorded: strong degranulation of meningeal mast cells | only PACAP-38 induces a significant change in current; also recorded: rapid concentration-depended inward current; also recorded: caused a change in current; also recorded: induces currents | equipotent; also recorded: significant increase in membrane current; also recorded: activates the PAC1-receptor with apparently equal potencies | 15 out of 19 | Currents were not observed |  |  | provokes migraine attacks in migraine patients as well as headache in non-migraineurs | all participants in the clinical provocation studies experienced long-lasting flushing; also recorded: heat sensation and long-lasting flushing | eight-fold increase
